Our source for the IC50 values is patent US20240000767A1, “COMBINATION OF AN ALPHA2-ADRENOCEPTOR SUBTYPE C (ALPHA-2C) ANTAGONIST WITH A TASK1/3 CHANNEL BLOCKER FOR THE TREATMENT OF SLEEP APNEA” (Bayer Aktiengesellschaft, priority 2020, published 2024).

Molecules are shown by their SMILES.

In the test the target is human ADRA2C receptor (Homo sapiens (Human), UniProt P18825). Nature of the test: In vitro activity assay to determine the inhibition of recombinant ADRA2C (CHO-K1 cells, aequorin bioluminescence). The note with it: inhibition of noradrenaline-induced bioluminescence signal; some mean values from multiple determinations; read-out: ARα2C IC50. Format: cell-based. Here is the method: B-2. In Vitro Activity Assay to Determine the Inhibition of Recombinant ADRA2C
Chain of human ADRA2C receptor (P18825 whole entry): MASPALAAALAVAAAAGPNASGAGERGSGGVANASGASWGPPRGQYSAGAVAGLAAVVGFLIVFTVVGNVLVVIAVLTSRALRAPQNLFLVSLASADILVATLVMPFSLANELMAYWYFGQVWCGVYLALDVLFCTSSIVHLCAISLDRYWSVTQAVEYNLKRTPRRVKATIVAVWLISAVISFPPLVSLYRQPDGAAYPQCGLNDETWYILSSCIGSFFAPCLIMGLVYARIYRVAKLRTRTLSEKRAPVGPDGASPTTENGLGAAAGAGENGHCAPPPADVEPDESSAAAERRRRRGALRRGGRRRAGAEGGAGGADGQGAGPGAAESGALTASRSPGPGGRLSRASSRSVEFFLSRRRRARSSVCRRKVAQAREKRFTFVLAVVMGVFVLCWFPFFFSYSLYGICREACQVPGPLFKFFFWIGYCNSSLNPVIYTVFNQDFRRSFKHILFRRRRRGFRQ
The human ADRA2C receptor belongs to the G protein(guanine-dependent protein)-coupled receptors, the main function of which is the transduction of signals into the interior of the cell.
The investigations of the inhibition of the recombinant human ADRA2C receptors were carried out with stabily transfected CHO-K1 cells coexpressing the Gaq protein and the calcium-sensitive photoprotein aequorin. In this recombinant system, binding of the agonists noradrenaline to the ADRA2C receptor leads, after activation of a signal cascade, to calcium release from intracellular stores, which is detected by the intracellular calcium sensor aequorin as a bioluminescent signal. The method is described in detail in the reference below. [Wunder F., Kalthof B., Muller T., Hueser J. Functional Cell-Based Assays in Microliter Volumes for Ultra-High Throughput Screening. Combinatorial Chemistry & High Throughput Screening, Volume 11, Number 7, 2008, pp. 495-504(10). doi.org/10.2174/138620708785204054]
The activity of the test substances was determined via their ability to inhibit the agonist-induced increase of the bioluminescence signal. The concentration which can block half of this signal increase is referred to as IC50. The IC50 value is calculated using the 4 parameter logistic function (Hill function):
Top=upper threshold, Bottom=lower threshold, Slope=slope, IC50=turning point
Take `Cc1sc(N2CCC(N3CCC[C@@H](C)C3)CC2)nc1C(=O)NCc1ncc(F)cc1F` [Example 9, N-[(3,5-difluoropyridin-2-yl)methyl]-5-methyl-2-[(3R)-3-methyl[1,4′-bipiperidin]-1′-yl]-1,3-thiazole-4-carboxamide]: the IC50 turned out to be 170 nM.

For the molecule `C[C@@H]1CCCN(C2CCN(c3nc(C(=O)NCc4ncc(F)cc4F)cs3)CC2)C1` [Example 10, N-[(3,5-difluoropyridin-2-yl)methyl]-2-[(3R)-3-methyl[1,4′-bipiperidin]-1′-yl]-1,3-thiazole-4-carboxamide], the IC50 worked out at 21.4 nM.

As to `C[C@@H]1CCCN(C2CCN(c3nc(C(F)(F)F)c(C(=O)NCc4ncc(F)cc4F)s3)CC2)C1` [Example 11, N-[(3,5-difluoropyridin-2-yl)methyl]-2-[(3R)-3-methyl[1,4′-bipiperidin]-1′-yl]-4-(trifluoromethyl)-1,3-thiazole-5-carboxamide], the IC50 worked out at 140 nM.

As to `CCc1sc(N2CCC(N3CCC[C@@H](C)C3)CC2)nc1C(=O)NCc1ncc(F)cc1F` [Example 12, N-[(3,5-difluoropyridin-2-yl)methyl]-5-ethyl-2-[(3R)-3-methyl[1,4′-bipiperidin]-1′-yl]-1,3-thiazole-4-carboxamide], the IC50 was found to be 107 nM.

Take `C[C@@H]1CCCN(C2CCN(c3nc(C(=O)NCc4ncc(F)cc4F)co3)CC2)C1` [Example 13, N-[(3,5-difluoropyridin-2-yl)methyl]-2-[(3R)-3-methyl[1,4′-bipiperidin]-1′-yl]-1,3-oxazole-4-carboxamide]: the IC50 is 209 nM.

As to `Cc1oc(N2CCC(N3CCC[C@@H](C)C3)CC2)nc1C(=O)NCc1ncc(F)cc1F` [Example 14, N-[(3,5-difluoropyridin-2-yl)methyl]-5-methyl-2-[(3R)-3-methyl[1,4′-bipiperidin]-1′-yl]-1,3-oxazole-4-carboxamide], the concentration for half-maximal inhibition (IC50) came out at 211 nM.

For `CO[C@@H]1CCCN(C2CCN(c3ncc(C(=O)NCc4ncc(F)cc4F)s3)CC2)C1` [Example 15, N-[(3,5-difluoropyridin-2-yl)methyl]-2-[(3R)-3-methoxy[1,4′-bipiperidin]-1′-yl]-1,3-thiazole-5-carboxamide], the IC50 came to 1850 nM.

With `C[C@@H]1CCCN(C2CCN(c3ncc(C(=O)NCc4cccc(C(F)(F)F)c4)s3)CC2)C1` [Example 19, 2-[(3R)-3-Methyl[1,4′-bipiperidin]-1′-yl]-N-[3-(trifluoromethyl)benzyl]-1,3-thiazole-5-carboxamide], the IC50 worked out at 690 nM.

Take `C[C@@H]1CCCN(C2CCN(c3ncc(C(=O)NCc4ncccc4F)s3)CC2)C1` [Example 20, N-[(3-Fluoropyridin-2-yl)methyl]-2-[(3R)-3-methyl[1,4′-bipiperidin]-1′-yl]-1,3-thiazole-5-carboxamide]: the IC50 was 110 nM.

In the case of `C[C@@H]1CCCN(C2CCN(c3ncc(C(=O)NCc4cc(Cl)ccc4F)s3)CC2)C1` [Example 21, N-(5-Chloro-2-fluorobenzyl)-2-[(3R)-3-methyl[1,4′-bipiperidin]-1′-yl]-1,3-thiazole-5-carboxamide], the IC50 stood at 7.2 nM.

For the molecule `C[C@@H]1CCCN(C2CCN(c3ncc(C(=O)NCc4ccc(C(F)(F)F)cc4)s3)CC2)C1` [Example 22, 2-[(3R)-3-Methyl[1,4′-bipiperidin]-1′-yl]-N-[4-(trifluoromethyl)benzyl]-1,3-thiazole-5-carboxamide], the IC50 was 640 nM.

On to `C[C@@H]1CCCN(C2CCN(c3ncc(C(=O)NCc4ncc(Cl)cc4F)s3)CC2)C1` [Example 23, N-[(5-chloro-3-fluoropyridin-2-yl)methyl]-2-[(3R)-3-methyl[1,4′-bipiperidin]-1′-yl]-1,3-thiazole-5-carboxamide], for which the IC50 was 17 nM.

In the case of `Cc1cccnc1CNC(=O)c1cnc(N2CCC(N3CCC[C@@H](C)C3)CC2)s1` [Example 24, 2-[(3R)-3-methyl[1,4′-bipiperidin]-1′-yl]-N-[(3-methylpyridin-2-yl)methyl]-1,3-thiazole-5-carboxamide], the IC50 was 1060 nM.

Regarding `Cc1ccnc(CNC(=O)c2cnc(N3CCC(N4CCC[C@@H](C)C4)CC3)s2)c1` [Example 25, 2-[(3R)-3-methyl[1,4′-bipiperidin]-1′-yl]-N-[(4-methylpyridin-2-yl)methyl]-1,3-thiazole-5-carboxamide], the IC50 was 2400 nM.

For `C[C@@H]1CCCN(C2CCN(c3ncc(C(=O)NCc4ncccc4Cl)s3)CC2)C1` [Example 26, N-[(3-chloropyridin-2-yl)methyl]-2-[(3R)-3-methyl[1,4′-bipiperidin]-1′-yl]-1,3-thiazole-5-carboxamide], the IC50 turned out to be 280 nM.

`C[C@@H]1CCCN(C2CCN(c3ncc(C(=O)N(C)Cc4ncccc4F)s3)CC2)C1` [Example 27, N-[(3-fluoropyridin-2-yl)methyl]-N-methyl-2-[(3R)-3-methyl[1,4′-bipiperidin]-1′-yl]-1,3-thiazole-5-carboxamide]: the IC50 worked out at 310 nM.

For the molecule `C[C@@H]1CCCN(C2CCN(c3ncc(C(=O)NCc4cccc(C(F)(F)F)n4)s3)CC2)C1` [Example 28, 2-[(3R)-3-methyl[1,4′-bipiperidin]-1′-yl]-N-{[6-(trifluoromethyl)pyridin-2-yl]methyl}-1,3-thiazole-5-carboxamide], the IC50 turned out to be 890 nM.

With `C[C@@H]1CCCN(C2CCN(c3ncc(C(=O)NCc4ccc(Cl)cn4)s3)CC2)C1` [Example 29, N-[(5-chloropyridin-2-yl)methyl]-2-[(3R)-3-methyl[1,4′-bipiperidin]-1′-yl]-1,3-thiazole-5-carboxamide], the IC50 was 96 nM.

As for `C[C@@H]1CCCN(C2CCN(c3ncc(C(=O)NCc4ncc(F)cc4Cl)s3)CC2)C1` [Example 31, N-[(3-chloro-5-fluoropyridin-2-yl)methyl]-2-[(3R)-3-methyl[1,4′-bipiperidin]-1′-yl]-1,3-thiazole-5-carboxamide], the IC50 was found to be 89 nM.

Consider `C[C@@H]1CCCN(C2CCN(c3ncc(C(=O)NCc4cccc(OC(F)(F)F)n4)s3)CC2)C1` [Example 32, 2-[(3R)-3-methyl[1,4′-bipiperidin]-1′-yl]-N-{[6-(trifluoromethoxy)pyridin-2-yl]methyl}-1,3-thiazole-5-carboxamide], for which the concentration for half-maximal inhibition (IC50) amounted to 640 nM.

For `C[C@@H]1CCCN(C2CCN(c3ncc(C(=O)NCc4ccc(Cl)cc4)s3)CC2)C1` [Example 33, N-(4-chlorobenzyl)-2-[(3R)-3-methyl[1,4′-bipiperidin]-1′-yl]-1,3-thiazole-5-carboxamide], the IC50 is 15 nM.

In the case of `C[C@@H]1CCCN(C2CCN(c3ncc(C(=O)NCc4cc(F)ccc4Cl)s3)CC2)C1` [Example 34, N-(2-chloro-5-fluorobenzyl)-2-[(3R)-3-methyl[1,4′-bipiperidin]-1′-yl]-1,3-thiazole-5-carboxamide], the IC50 was determined as 640 nM.

On to `Cc1ccc(CNC(=O)c2cnc(N3CCC(N4CCC[C@@H](C)C4)CC3)s2)cc1` [Example 35, N-(4-methylbenzyl)-2-[(3R)-3-methyl[1,4′-bipiperidin]-1′-yl]-1,3-thiazole-5-carboxamide], for which the IC50 was determined as 1000 nM.

Turning to `Cc1cccc(CNC(=O)c2cnc(N3CCC(N4CCC[C@@H](C)C4)CC3)s2)c1` [Example 36, N-(3-methylbenzyl)-2-[(3R)-3-methyl[1,4′-bipiperidin]-1′-yl]-1,3-thiazole-5-carboxamide], the IC50 was determined as 190 nM.

What is called IC50 is the concentration that gives 50% inhibition.
